Measurements from patent US20230235084A1, “COMPOSITIONS AND METHODS FOR TARGETED PROTEIN STABILIZATION BY REDIRECTING ENDOGENOUS DEUBIQUITINASES” (THE TRUSTEES OF COLUMBIA UNIVERSITY IN THE CITY OF NEW YORK, priority 2020, published 2023).

Tests used:
[1] = system: KCNQ1; assay: Whole-cell patch clamp of KCNQ1 currents in CHO cells; assay type: cell-based, human
Description: Whole-cell patch clamp electrophysiology was used to determine functionality of enDUB-O1-rescued KCNQ1 channels.
Chinese hamster ovary (CHO) cells were obtained from ATCC and cultured at 37° C. in Kaighn’s Modified Ham’s F-12K (ATCC) supplemented with 8% FBS and 100 mg/mL of penicillin-streptomycin. CHO cells were transiently transfected with desired constructs in 35 mm tissue culture dishes—KCNQ1 (0.5 µg) and nano-P2A-CFP (0.5 µg) or enDUBO1-P2A-CFP (0.5 µg) using X-tremeGENE HP (1:2 DNA/reagent ratio) according to the manufacturers’ instructions (Roche).
For potassium channel measurements, whole-cell membrane currents were recorded at room temperature in CHO cells using an EPC-10 patch-clamp amplifier (HEKA Electronics) controlled by the PatchMaster software (HEKA). A coverslip with adherent CHO cells was placed on the glass bottom of a recording chamber (0.7-1 mL in volume) mounted on the stage of an inverted Nikon Eclipse Ti-U microscope. Micropipettes were fashioned from 1.5 mm thin-walled glass and fire-polished. […] Pipette resistance was typically 1.5 MΩ when filled with internal solution. I-V curves were generated from a family of step depolarizations (-40 to +100 mV in 10 mV steps from a holding potential of -80 mV). Currents were sampled at 20 kHz and filtered at 5 kHz. Traces were acquired at a repetition interval of 10 s.

[2] = system: CFTR; assay: Whole-cell patch clamp of CFTR currents in HEK293 cells; assay type: cell-based, human
Description: A critical next step was to determine whether enDUB-U21-rescued mutant CFTR channels are functional. We focused on N1303K and 4326delTC to represent Class II and Class VI mutations, respectively. HEK293 cells expressing WT CFTR display robust forskolin-activated chloride currents that are blocked by CFTR inhibitor (FIGS. 3C and 3D), and not observed in untransfected cells (FIG. 3E). By contrast, cells expressing either N1303K or 4326delTC alone yielded no forskolin-induced currents (FIGS. 3F and 3G) consistent with their limited surface trafficking and status as disease-causing mutants.
For CFTR channel measurements, whole-cell recordings were carried out in HEK293 and FRT cells at room temperature. Internal solution contained (mM): 113 L-aspartic acid, 113 CsOH, 27 CsCl, 1 NaCl, 1 MgCl2, 1 EGTA, 10 TES, 3 MgATP (pH 7.2). External contained (in mM): 145 NaCl, 4 CsCl, 1 CaCl2, 1 MgCl2, 10 glucose, and 10 TES (pH 7.4). I-V curves were generated from a family of step depolarizations (-80 to +80 mV in 20 mV steps from a holding potential of -40 mV). CFTR currents were activated by perfusion with 10 µM forskolin. In experiments utilizing lumacaftor (3 µM), the drug was added for 24 hrs posttransfection and incubated at 37° C. Ivacaftor was used acutely at 5 µM concentration. Currents were sampled at 20 kHz and filtered at 7 kHz. Traces were acquired at a repetition interval of 10 s.

[3] = system: BBS-CFTR-YFP; assay: Flow cytometry assay of CFTR surface density in HEK293 cells; assay type: cell-based, human
Description: BBS-tagged YFP-CFTR was engineered to enable simultaneous assessment of total channel expression and surface density using flow cytometry, and probed the impact of six distinct mutations previously categorized as Class II (F508del, R560T, N1303K) or Class VI (Q1412X, 4279insA, 4326delTC) mutations, respectively (FIG. 3A). All six mutations markedly impaired channel surface density compared to WT CFTR (FIG. 3B, black bars). […] We utilized a second enDUB (enDUB-U21) that comprises the catalytic component of ubiquitin-specific protease USP21 (FIG. 3A), which removes all ubiquitin linkage types (Faesen et al. 2011).
Cell surface and total ion channel pools were assayed by flow cytometry in live, transfected HEK293 cells as previously described (Kanner et al. 2017; Kanner et al. 2018). Briefly, 48 hrs post-transfection, cells cultured in 12-well plates gently washed with ice cold PBS containing Ca^2+ and Mg^2+ (in mM: 0.9 CaCl2, 0.49 MgCl2, pH 7.4), and then incubated for 30 min in blocking medium (DMEM with 3% BSA) at 4° C. HEK293 cells were then incubated with 1 µM Alexa Fluor 647 conjugated α-bungarotoxin (BTX647; Life Technologies) in DMEM/3% BSA on a rocker at 4° C. for 1 hr, followed by washing three times with PBS (containing Ca^2+ and Mg^2+ ). […]

[4] = target: T1, full-length CFTR (Homo sapiens, UniProt P13569); assay: Flow cytometric FRET binding assay in HEK293 cells; details: Cerulean-nanobody donor, Venus-CFTR acceptor
T1 construct: expressed in transfected cells; host or cells: HEK293
Description: (§1) While GFP-targeted enDUBs provided critical proof-of-concept efficacy for the targeted deubiquitination approach in rescuing different trafficking-deficient recombinant mutant channels, a key next step was to develop nanobodies towards CFTR itself to enable targeting of endogenous channels. Accordingly, we used purified CFTR NBD1 domain (FIG. 4A) as bait to identify binders using a yeast nanobody library surface display approach (McMahon et al. 2018) (FIG. 4B). After several rounds of magnetic-activated cell sorting (MACS) and fluorescence-activated cell sorting (FACS) selection we isolated 14 unique nanobody binders with a range of affinities for NBD1 as reported by an on-yeast binding assay (FIG. 12A; Table 1). […] Binding of nb.E3h to full-length CFTR in cells was confirmed by a flow cytometric fluorescence resonance energy transfer (flow-FRET) assay (FIG. 4C).
FRET binding assays were performed via flow cytometry in live, transfected HEK293 cells as previously described (Lee et al. 2016). […] Cerulean (Cer), Venus (Ven), and FRET signals were analyzed using the following laser / filter set configurations: BV421 (Ex: 405 nm, Em: 450/50), FITC (Ex: 488 nm, Em: 525/50), and BV520 (Ex: 405 nm, Em: 525/50), respectively. […]

[5] = system: CFTR; assay: YFP halide quenching assay in HEK293 cells; assay type: cell-based, human; details: HEK293, pilot screen of nanobodies
Description: as §1
Target sequence in this assay (P13569 387-646 limits assumed): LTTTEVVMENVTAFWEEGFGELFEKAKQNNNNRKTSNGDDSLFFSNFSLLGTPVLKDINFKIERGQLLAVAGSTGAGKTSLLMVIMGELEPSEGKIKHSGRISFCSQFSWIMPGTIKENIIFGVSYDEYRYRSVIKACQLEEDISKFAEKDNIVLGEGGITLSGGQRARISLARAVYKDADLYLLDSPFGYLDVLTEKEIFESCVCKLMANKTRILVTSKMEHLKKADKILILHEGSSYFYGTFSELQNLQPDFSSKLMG
A YFP halide quenching plate-reader assay was adapted from previous work (Galietta et al. 2001). […] Baseline YFP readings (Ex: 510 nm, Em: 538 nm) were taken using a SpectraMax M5 plate-reader (Molecular Devices). An equal amount of 2× activation solution, containing iodide, was added to obtain a final concentration (70 mM Nal, 10 µM forskolin, 5 µM VX770), and a time series recording YFP fluorescence was taken every 2 s. […]

T1 sequence (P13569 whole entry): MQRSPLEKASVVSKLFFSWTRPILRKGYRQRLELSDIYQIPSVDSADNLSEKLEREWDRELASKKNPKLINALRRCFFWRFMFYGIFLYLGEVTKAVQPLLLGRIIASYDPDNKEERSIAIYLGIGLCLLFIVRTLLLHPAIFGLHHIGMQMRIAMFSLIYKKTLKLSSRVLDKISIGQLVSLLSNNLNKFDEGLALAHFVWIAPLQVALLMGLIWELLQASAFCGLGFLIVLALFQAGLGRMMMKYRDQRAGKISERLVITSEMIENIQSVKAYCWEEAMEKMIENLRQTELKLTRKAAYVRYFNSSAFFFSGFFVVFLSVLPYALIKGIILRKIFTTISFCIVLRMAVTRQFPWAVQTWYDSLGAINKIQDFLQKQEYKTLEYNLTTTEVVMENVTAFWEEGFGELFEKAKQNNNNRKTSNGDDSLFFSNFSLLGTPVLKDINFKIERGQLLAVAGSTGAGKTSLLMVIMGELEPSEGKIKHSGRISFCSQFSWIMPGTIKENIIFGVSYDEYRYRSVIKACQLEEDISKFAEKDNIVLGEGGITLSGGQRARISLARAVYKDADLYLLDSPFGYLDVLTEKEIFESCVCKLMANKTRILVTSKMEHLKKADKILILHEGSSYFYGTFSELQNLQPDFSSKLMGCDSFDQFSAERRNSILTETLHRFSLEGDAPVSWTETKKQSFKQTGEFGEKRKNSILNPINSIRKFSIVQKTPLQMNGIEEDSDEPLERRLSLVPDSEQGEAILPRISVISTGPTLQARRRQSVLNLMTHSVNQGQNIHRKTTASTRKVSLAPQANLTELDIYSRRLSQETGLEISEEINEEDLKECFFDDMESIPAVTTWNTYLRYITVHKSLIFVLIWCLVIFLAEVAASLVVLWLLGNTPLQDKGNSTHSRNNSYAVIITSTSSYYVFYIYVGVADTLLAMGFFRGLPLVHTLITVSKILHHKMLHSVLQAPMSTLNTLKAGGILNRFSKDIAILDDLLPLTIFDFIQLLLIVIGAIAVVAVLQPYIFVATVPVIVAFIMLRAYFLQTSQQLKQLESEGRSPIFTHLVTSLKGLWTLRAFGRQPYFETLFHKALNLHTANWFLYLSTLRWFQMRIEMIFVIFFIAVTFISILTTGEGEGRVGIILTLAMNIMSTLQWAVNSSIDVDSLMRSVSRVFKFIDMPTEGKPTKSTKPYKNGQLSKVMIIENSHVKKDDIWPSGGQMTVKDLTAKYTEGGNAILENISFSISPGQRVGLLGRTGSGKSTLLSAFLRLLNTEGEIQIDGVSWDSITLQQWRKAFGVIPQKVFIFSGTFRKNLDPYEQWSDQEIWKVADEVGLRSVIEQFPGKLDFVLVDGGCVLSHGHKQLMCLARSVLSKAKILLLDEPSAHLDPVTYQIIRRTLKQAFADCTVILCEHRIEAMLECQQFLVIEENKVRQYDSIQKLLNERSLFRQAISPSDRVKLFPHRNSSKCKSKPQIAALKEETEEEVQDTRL

Molecule: COc1ccc(-c2csc(NC(=O)[C@H]3CCCCN3S(=O)(=O)c3ccc(C)cc3)n2)cc1 [ML277, (R)-N-(4-(4-methoxyphenyl)thiazol-2-yl)-1-tosylpiperidine-2-carboxamide]
- enDUB-O1-rescued R591H current amplitude ([1]; R591H + enDUB-O1, ML277 1 µM): markedly increased enDUB-O1-rescued R591H current amplitude to beyond WT KCNQ1 levels
- R591H KCNQ1 currents ([1]; R591H + nano, 1 µM): modestly increased R591H currents

Molecule: CC(C)(C)c1cc(C(C)(C)C)c(NC(=O)c2c[nH]c3ccccc3c2=O)cc1O [ivacaftor]
- Forskolin-stimulated 4326delTC or N1303K currents after ivacaftor ([2]; enDUB-U21 co-expression + lumacaftor, ivacaftor 5 µM): further enhanced
- Forskolin-induced 4326delTC and N1303K currents after ivacaftor ([2]; nano-expressing HEK293 cells, lumacaftor pre-incubation, ivacaftor 5 µM): further elevated

Molecule: Cc1ccc(NC(=O)C2(c3ccc4c(c3)OC(F)(F)O4)CC2)nc1-c1cccc(C(=O)O)c1 [lumacaftor]
- F508del and R560T CFTR surface expression ([3]; lumacaftor 24 hrs pre-incubation or enDUB co-expression): did not increase F508del and R560T surface expression
- Surface trafficking of the other four CFTR mutations (N1303K, Q1412X, 4279insA, 4326delTC) ([3]; lumacaftor 24 hrs pre-incubation or enDUB co-expression (enDUB compared to lumacaftor)): improved trafficking of the remaining 4 mutations
- Forskolin-induced 4326delTC and N1303K currents ([2]; nano-expressing HEK293 cells, lumacaftor pre-incubation): relatively small

B1: nb.E3h: CFTR (NBD1) target nanobody clone, SEQ ID No: 25 (protein)
VHH: QVQLQESGGGLVQAGGSLRLSCAASGTISGSGSMGWYRQAPGKEREFVAAINVGSNTYYADSVKGRFTISRDNAKNTVYLQMNSLKPEDTAVYYCAVRFGYYYRHTYWGQGTQVTVSS
modifications: nanobody
- Performance in patch clamp assay when converted to an enDUB ([2]; HEK293): superior performance
- Binding to full-length CFTR in cells (flow-FRET) [4]: confirmed
- Performance in halide sensor assay when converted to an enDUB [5]: superior performance
